Experimental data published in paper PMC8537218, “Discovery of a Novel Class of Norovirus Inhibitors with High Barrier of Resistance” (Pharmaceuticals, 2021).
Read-outs that look alike come from different tables or passages of the source.

Tests used:
[1] = system: Murine norovirus type 1, strain CW1; assay: MNV-induced CPE reduction assay (MTS read-out) in RAW 264.7 cells; type: cell-based; conditions: MNV CW1, RAW 264.7 cells, read-out: MNV EC50 ± SD
Description: (§1) Norovirus: The experiment was performed as described earlier. In short, RAW 264.7 cells (1 × 10^4 cells/well) were infected with MNV.CW1 in the presence of a dilution series of compounds. Antiviral activity and cytotoxicity were determined using a colometric assay using 3-(4,5-dimethylthiazol-2-yl)-5-(3-carboxymethoxyphenyl)-2-(4-sulfophenyl)-2H-tetrazolium (MTS). The 50% effective concentration (EC50) was defined as the compound concentration that protected 50% of the cells from CPE. The cell viability % was calculated as (ODtreated/ODCC) […] and the 50% cytotoxic concentration (CC50) was defined as the compound concentration that reduces the number of viable cells by 50%.

[2] = Cytotoxicity assay (MTS) on non-infected RAW 264.7 cells; type: cell-based; conditions: mouse, non-infected RAW 264.7 cells, cytotoxic concentration to induce 50% death of non-infected RAW 264.7 cells; read-out: MNV CC50 ± SD
Description: as §1

[3] = system: HuNoV GI.1 replicon (Norwalk replicon); assay: HuNoV GI.1 replicon assay in HG23 cells (RT-qPCR); type: cell-based, Human norovirus; conditions: Norovirus, HG23, 72 h, Norwalk replicon (human GI.1), HG23 cells, 72 h, replicon RNA by RT-qPCR; read-out: HuNoV Replicon EC50 ± SD
Description: HuNoV GI.1 replicon: The experiment was performed as described earlier with minor modifications. In short, HG23 cells (7.5 × 10^2 cells/well) were seeded into the wells of a 96-well plate without G418 (Geneticin Selective Antibiotic). After 24 h of incubation, serial dilutions of compounds were added. Cells were further incubated for 72 h, then cells were collected for RNA load quantification by RT-qPCR. To determine relative levels of Norwalk virus replicon RNA, β-actin was used as a normalizer and ratios were calculated as previously described.

[4] = system: RAW 264.7 cells; assay: Cytotoxicity assay (MTS) on non-infected RAW 264.7 cells; type: cell-based; conditions: RAW 264.7 cells
Description: as §1

[5] = system: MNV.CW3/S131T and MNV.CW3/Y154F; assay: Antiviral assay on reverse-engineered MNV.CW3 mutant viruses (S131T, Y154F); type: cell-based, Murine norovirus; conditions: single mutations S131T or Y154F in MNV backbone
Description: The desired mutations were introduced into the MNV.CW3 cDNA clones using the QuikChange II XL mutagenesis kit (Agilent) according to the manufacturer’s instructions. The presence of the desired mutation in the produced construct was confirmed by PCR and sequencing was done by Macrogen Inc. Sequences were analyzed and mutations were detected using the Geneious software.
The MNV.CW3 mutant viral stocks were obtained by transfecting the mutated plasmid pMNV CW3 (kindly provided by Prof. Wobus, University of Michigan) in Huh 7 Lunet cells expressing the MNV receptor CD300lf (kindly provided by Prof. Taube, University of Lübeck). Huh-7 CD300lf cells were cultured under selective pressure of G418. The Huh-7 CD300lf cells were seeded in 6-well plates at a density of 2 × 10^5 cells/mL in 2.5 mL of complete media. After 24 h, the cells were transfected with 2.5 μg of pMNV CW3 plasmid DNA using the TransIT mRNA Transfection Kit (Mirus Bio Corporation) according to the manufacturer’s protocol. Red fluorescent protein (RFP) was used as a positive control for transfection. Transfected cells were incubated for 48 h, cells underwent two freeze thaw cycles and the virus was harvested from the supernatants after centrifugation (10 min, 1000× g) and stored at −80 °C. Virus stocks were passaged for three times on BV-2 cells and followed by two consecutive passages on RAW 264.7 cells. Viral titers were determined by serial dilutions on RAW 264.7 cells seeded in 96-well plates.
The assessment of the antiviral activity of compounds on resistant viruses was performed similarly as the regular antiviral assay on MNV. First, the titer of the resistant viruses was determined by endpoint titration. A concentration of 30× TCID50 was used for each virus in the antiviral assays. RAW 264.7 cells (1 × 10^4 cells/well) were seeded in the presence of a dilution series of compounds and infected. Antiviral activity was determined using the MTS method. The 50% effective concentration (EC50) was defined as the compound concentration that protected 50% of the cells from CPE.

[6] = system: MNV; assay: Time-of-drug-addition assay (TOA) in MNV-infected RAW 264.7 cells; type: cell-based, Murine norovirus; conditions: time-of-addition experiment
Description: RAW 264.7 cells (4 × 10^5 cells/mL) were infected with MNV (MOI of 1). After 1 h at 4 °C, cells were washed with cold (4 °C) DMEM to remove unbound viruses. Cells were incubated at 37 °C to start the infection. To study the replication kinetics of MNV supernatant and cells were harvested, from untreated cultures, every 2 h until 24 h post-infection (pi) and viral RNA was quantified by RT-qPCR. In parallel, another set of infected cultures were treated with compound. The compound was added at 2 h intervals and cultures were further incubated until 24 h pi, supernatant and cells were collected separately for determination of the viral RNA by RT-qPCR. The isolation of the extracellular MNV RNA from cell culture supernatant was done by the NucleoSpin RNA Virus Kit (Macherey–Nagel), and the intracellular RNA was extracted from cells by the RNeasy kit (Qiagen).

[7] = RAW264.7, concentration inhibiting norovirus induced cell death (CPE) by 50%

With `Cc1cc(C)cc(C(=O)c2c(C(=O)NCc3ccc(CO)cc3)[nH]c3ccc(Cl)cc23)c1` [compound 8, 5-Chloro-3-(3,5-dimethylbenzoyl)-N-(4-(hydroxymethyl)benzyl)-1H-indole-2-carboxamide] the EC50 [1, 7] was greater than 100 µM, the CC50 [2] was 7.97 ± 15.3 µM and the melting point was 271 to 274 °C.

Compound `Cc1cc(C)cc(Cc2c(C(=O)NCc3ccc(CO)cc3)[nH]c3ccc(Cl)cc23)c1` [compound 7, 5-Chloro-3-(3,5-dimethylbenzyl)-N-(4-(hydroxymethyl)benzyl)-1H-indole-2-carboxamide] has an EC50 [3] of 5.59 ± 2.47 µM, an EC50 [1, 7] of 0.84 ± 0.22 µM and a CC50 [2] of 9.27 ± 6.6 µM. It also gave a melting point of 171 to 174 °C.

For `Cc1cc(C)cc(Sc2c(C(=O)NCc3ccc(CO)cc3)[nH]c3ccc(Cl)cc23)c1` [compound 9, 5-Chloro-3-((3,5-dimethylphenyl)thio)-N-(4-(hydroxymethyl)benzyl)-1H-indole-2-carboxamide], the EC50 [3] was 11.8 ± 8.4 µM, the EC50 [1, 7] was 4.39 ± 4.78 µM and the CC50 [2] was 31.7 ± 8.01 µM. It also gave a melting point of 212 to 215 °C.

In the case of `Cc1cc(C)cc(S(=O)(=O)c2c(C(=O)NCc3ccc(O)cc3)[nH]c3ccc(Cl)cc23)c1` [compound 4, 5-Chloro-3-((3,5-dimethylphenyl)sulfonyl)-N-(4-hydroxybenzyl)-1H-indole-2-carboxamide], the EC50 [3] is reported as 88.3 ± 4.75 µM, the EC50 [1, 7] is reported as greater than 100 µM and the “cytotoxicity (in words)” value [4] is reported as “highly cytotoxic”. It also gave a CC50 [2] of 3.48 ± 1.1 µM and a melting point of 236 to 237 °C.

In the case of `Cc1cc(C)cc(S(=O)(=O)c2c(C(=O)NCCO)[nH]c3ccc(Cl)cc23)c1` [compound 3, 5-Chloro-3-((3,5-dimethylphenyl)sulfonyl)-N-(2-hydroxyethyl)-1H-indole-2-carboxamide], the EC50 [3] is reported as 47.7 ± 3.39 µM, the EC50 [1, 7] is reported as greater than 100 µM and the CC50 [2] is reported as 88.7 ± 4.75 µM.

For `Cc1cc(C)cc(S(=O)(=O)c2c(C(=O)NCCc3ccc(O)cc3)[nH]c3ccc(Cl)cc23)c1` [compound 11, 5-Chloro-3-((3,5-dimethylphenyl)sulfonyl)-N-(4-hydroxyphenethyl)-1H-indole-2-carboxamide], the EC50 [3] was 27.5 ± 28.7 µM, the EC50 [1, 7] was 36 ± 23.3 µM and the “cytotoxicity (in words)” value [4] was “highly cytotoxic”. It also gave a CC50 [2] of 8.49 ± 8.09 µM and a melting point of 231 to 234 °C.

For `C[C@@]1(O)[C@H](O)[C@@H](CO)O[C@H]1n1ccc(N)nc1=O` [2CMC, 2′-C-methylcytidine, reference compound], the “shift in EC50 / sensitivity of mutant viruses” value [5] was “remained equally sensitive” and the “step of the MNV replication cycle at which the compound acts” value [6] was “onset of the viral genome replication”.

`Cc1cc(C)cc(S(=O)(=O)c2c(C(=O)Nc3ccc(CO)cc3)[nH]c3ccc(Cl)cc23)c1` [compound 1, 5-Chloro-3-((3,5-dimethylphenyl)sulfonyl)-N-(4-(hydroxymethyl)phenyl)-1H-indole-2-carboxamide] gave an EC50 [3] of roughly 2 µM, an EC50 [1, 7] of 0.5 ± 0.1 µM and an EC50 ([1]; concentration inhibiting norovirus induced cell death (CPE) by 50%) of 0.52 ± 0.07 µM. It also gave a CC50 [2] greater than 100 µM and a melting point of 220 to 221 °C.

`O=C(NCc1ccc(CO)cc1)c1[nH]c2ccc(Cl)cc2c1S(=O)(=O)c1ccccc1` [compound 10, 5-Chloro-N-(4-(hydroxymethyl)benzyl)-3-(phenylsulfonyl)-1H-indole-2-carboxamide] showed an EC50 [3] of 18.5 ± 16.3 µM, an EC50 [1, 7] of 0.63 ± 0.48 µM and a CC50 [2] of 25.7 ± 34.9 µM. It also gave a melting point of 182 to 185 °C.

With `CCOC(=O)/C=C/[C@H](C[C@@H]1CCNC1=O)NC(=O)[C@@H](CC(=O)[C@@H](NC(=O)c1cc(C)on1)C(C)C)Cc1ccc(F)cc1` [rupintrivir] the “shift in EC50 / sensitivity of mutant viruses” value [5] was “remained equally sensitive”.

Compound `O=C(Nc1ccc(CO)cc1)c1[nH]c2ccc(Cl)cc2c1S(=O)(=O)c1ccccc1` [compound 5, 5-Chloro-N-(4-(hydroxymethyl)phenyl)-3-(phenylsulfonyl)-1H-indole-2-carboxamide] has an EC50 [1, 7] greater than 100 µM, a CC50 [2] of 34.9 ± 5.03 µM and a melting point of 152 to 155 °C.

In the case of `Cc1cc(C)cc(S(=O)(=O)c2c(C(=O)NCc3ccccc3)[nH]c3ccc(Cl)cc23)c1` [compound 2, N-Benzyl-5-chloro-3-((3,5-dimethylphenyl)sulfonyl)-1H-indole-2-carboxamide], the EC50 [3] is reported as 3.66 ± 0.66 µM, the EC50 [1, 7] is reported as greater than 100 µM and the CC50 [2] is reported as greater than 100 µM.
